{
  "source": "paper PMC12259270",
  "about": "“Sensory neuron–expressed FGF13 controls nociceptive signaling in diabetic neuropathy models” (The Journal of Clinical Investigation, 2025)",
  "key": {"[1]": {"target": "T1, FGF13R110A/Nav1.7 complex (Homo sapiens, UniProt Q15858+Q92913, R110A)", "T1 construct": "Full-length FGF13-1b (aa 1-192) was subcloned into appropriate plasmids; Nav1.7 residues 1780-1977; expressed in transfected cells; host or cells: HEK293 (inferred; the LCA paragraph only says 'cells')", "T1 sequence (Q92913 1-192 isoform Q92913-2 R57A)": "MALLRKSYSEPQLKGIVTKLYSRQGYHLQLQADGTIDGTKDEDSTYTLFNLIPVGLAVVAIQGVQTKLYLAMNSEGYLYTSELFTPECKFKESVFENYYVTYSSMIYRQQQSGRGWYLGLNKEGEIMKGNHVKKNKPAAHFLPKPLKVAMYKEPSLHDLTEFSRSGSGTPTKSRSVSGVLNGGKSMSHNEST", "T1 sequence (Q15858 1791-1988)": "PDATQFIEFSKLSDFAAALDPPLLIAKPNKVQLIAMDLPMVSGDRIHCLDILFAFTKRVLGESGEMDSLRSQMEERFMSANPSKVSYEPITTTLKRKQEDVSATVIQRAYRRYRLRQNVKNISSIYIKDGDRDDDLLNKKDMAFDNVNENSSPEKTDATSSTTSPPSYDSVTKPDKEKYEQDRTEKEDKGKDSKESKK", "assay": "LCA, CLuc-FGF13R110A/CD4-Nav1.7-CTD-NLuc", "assay_type": "cell-based", "conditions": "for activity against the FGF13R110A/Nav1.7 complex: LCA, PW164 20 μM, ZL192 50 μM", "from_the_text": "The respective gene ID numbers used in this study are as follows: NM_033642 (human, FGF13-1b) and NM_002977 (human SCN9A). Full-length FGF13-1b (aa 1-192) was subcloned into appropriate plasmids for use in this investigation, unless otherwise noted. For consistency with AlphaFold modeling presented, numbering of point mutations to FGF13-1b are based on the longest FGF13 isoform (FGF13-1a, NM_004114.2). CLuc-FGF13, […]\nand constructs expressing the CLuc or the NLuc fragments of Firefly ( Photinus pyralis) luciferase (24) respectively were engineered, mutated (CLuc-FGF13R110A) and sequenced at the Molecular Genomics Core (University of Texas Medical Branch). The CD4 -Nav1.7-CTD-NLuc cassette was synthesized from GeneArt (Nav1.7 residues 1780-1977) (ThermoFisher) and subcloned at 5'-HindIII and 3’-BsiWi restriction sites in pcDNA3.1 (Invitrogen). Additionally, FGF13 was amplified with polymerase chain reaction (PCR) by using gene-specific primers, and subcloned in pcDNA3.1 at 5’ -BsiWi and 3’-Not I restriction sites. […]\nCell Culture and transfections\nHEK293 cells were purchased from ATCC (catalog # CRL-1573). Cells were cultured and incubated at 37 °C with 5% CO2 in medium with equal volumes of Dulbecco modified essential medium (DMEM) and F12 […]\nSplit-luciferase Complementation Assay (LCA)\nTwenty-four hours post transfection, cells were trypsinized using TrypLE (Gibco; cat # 12604013), centrifuged at 1750 rpm for 5 min, triturated in medium, and seeded into white clear-bottom 96-well CELLSTAR µClear® plates (Greiner Bio -One; cat # 655073 ) at ~0.8 x 10^5 cells per well in 200 µl of medium. The cells were incubated for another 24 hours, and then the growth medium was replaced with 100 µl serum -free, phenol red -free DMEM/F-12 medium (Invitrogen). All compounds from the PW - and the ZL-series, including PW164 and ZL192, were dissolved in DMSO, added to a final concentration of 1 –500 μM (0.5 % DMSO) in the serum -free medium and then cells were incubated for two hours. The bioluminescence reaction was initiated by injection of 100 μl of D -luciferin substrate (1.5 mg/ml dissolved in PBS) using a Synergy H4 multimode microplate reader (BioTek). Luminescence readings were initiated after 3 s of mild plate shaking and performed at 2 min intervals for 20-30 min with integration times of 0.5 s, and the c ells were maintained throughout the measurements at 37 °C. Raw signal intensity was computed by averaging peak luminescence plus two adjacent time points.\nNormalized signal intensity was expressed as the percentage of mean signal intensity relative to per plate control wells treated with 0.5% DMSO.\nSurface plasmon resonance (SPR)\nAll SPR experiments were performed on a Biacore T100 (GE Healthcare). Biotin-Nav1.7-CTD peptide […]"}, "C57BL/6 mice": {"tested_on": "C57BL/6 mice", "assay": "Mechanical sensitivity (von Frey, LVF/HVF) after intraplantar injection, mice without capsaicin", "assay_type": "in vivo, mouse", "set-up": "key to LVF Mean / HVF Mean: % withdrawals from 10 consecutive von Frey stimulations", "conditions": "for HVF Mean / LVF Mean: without capsaicin", "protocol": "Experiments were performed on 6- to 12-week-old male C57BL/6 mice (The Jackson Laboratory, Bar Harbor, ME) housed in the AAALAC-accredited facility at the University of Texas Medical Branch. Mice were group-housed with up to 5 mice per cage on a 12-to-12-hour light–dark cycle and had access to water and food ad libitum. All protocols were approved by the Institutional Animal Care and Use Committee (IACUC) at the University of Texas Medical Branch and in accordance with the National Institutes of Health (NIH) guidelines.\nPW164 and ZL192 were dissolved in DMSO and saline in a ratio of 1:10. 0.1% capsaicin (10% ethanol, 10% Tween-20 in saline; Sigma-Aldrich). All the compounds were injected at the center of the hind paw. The control group received a DMSO-saline mixture. […]\nAssessment of mechanical sensitivity\nMechanical sensitivity was assessed using von Frey filaments (VFF 0.1g and 1.0 g force) in mice that were either naïve or received intraplantar (i.p.) injection of capsaicin. VFFs were applied at the injection site (capsaicin or drug unilateral intraderma l injection at the center of the hind paw using a 30 -G needle). VFF of 1.0 g force, which evokes a 40–60% withdrawal response in the naïve condition, was used to detect hyperalgesia, and VFF of 0.1 g […]\nmechanical sensitivity was expressed as % withdrawals from 10 consecutive stimulations. […]"}},
  "note": "Several values for one entry are separate records, joined by “and”; a condition that tells them apart may be missing. Equal values may be shown once. Residues, ends and D or L forms follow the SMILES beside them. *: point of attachment. Cbz = O=C(OCc1ccccc1)*; NHPh = c1ccc(N*)cc1; OtBu = CC(C)(C)O*",
  "data": [
    {"molecule": "CC(=O)N[C@@H](Cc1ccccc1)C(=O)N[C@@H](CC(C)C)C(=O)N1CCC[C@H]1C(=O)N[C@@H](CCCCN)C(=O)Nc1ccccc1", "note": "[ZL192] (Ac-FLPK-NHPh)", "values": [
      {"measurement": "LCA signal, FGF13R110A (Figure 1B), individual replicates", "setting": "[1]; FGF13R110A, ZL192 vs Vehicle", "value": "170.87 and 102.219 and 90.2721 and 84.4389 and 144.478 and 146.648 and 93.2954 and 156.251 and 109.034 and 101.512 and 90.7701 and 115.348"},
      {"measurement": "activity against the FGF13R110A/Nav1.7 complex", "setting": "[1]", "value": "no agonist activity"},
      {"measurement": "mechanical hypersensitivity in AAV2-shFGF13 mice", "setting": "C57BL/6 mice; ZL192 0.18 mg/mL, i.pl.", "value": "absent"},
      {"measurement": "mechanical sensitivity in AAV2-shCTRL mice", "setting": "C57BL/6 mice; ZL192 0.18 mg/mL, i.pl.", "value": "caused mechanical and thermal hypersensitivity"},
      {"measurement": "duration of increased mechanical response", "setting": "C57BL/6 mice; naive WT mice, ZL192 i.pl. 0.06 or 0.18 mg/mL", "value": "up to 2 hours"},
      {"measurement": "response to LVF and HVF stimulation", "setting": "C57BL/6 mice; naive WT mice, ZL192 i.pl. 5 μL, 0.06 or 0.18 mg/mL, vs vehicle", "value": "increased the response"}
    ]},
    {"molecule": "COC(=O)[C@@H](NC(=O)[C@H](CCC(=O)OC(C)(C)C)NC(=O)[C@H](CC(C)C)NC(=O)[C@@H]1CCCN1C(=O)OCc1ccccc1)C(C)C", "note": "[PW164] (Cbz-PLE(OtBu)V-OMe)", "values": [
      {"measurement": "Percentage luminescence, single replicates", "setting": "[1]; Fig 1B, FGF13R110A, PW164 (20 μM)", "value": "93.615% and 94.3116% and 89.4358% and 83.8635% and 99.0481% and 84.8386% and 92.9185% and 91.1075% and 93.4757% and 87.3462% and 108.8%"},
      {"measurement": "activity against the FGF13R110A/Nav1.7 complex", "setting": "[1]", "value": "prevented PW164 binding"},
      {"measurement": "HVF Mean", "setting": "C57BL/6 mice; PW164 0.07mg/mL, Time (h) 0", "value": 50},
      {"measurement": "LVF Mean", "setting": "C57BL/6 mice; PW164 0.07mg/mL, Time (h) 0", "value": 0},
      {"measurement": "HVF Mean", "setting": "C57BL/6 mice; PW164 0.07mg/mL, Time (h) 0.5", "value": 50},
      {"measurement": "LVF Mean", "setting": "C57BL/6 mice; PW164 0.07mg/mL, Time (h) 0.5", "value": 0},
      {"measurement": "HVF Mean", "setting": "C57BL/6 mice; PW164 0.07mg/mL, Time (h) 1", "value": 55},
      {"measurement": "LVF Mean", "setting": "C57BL/6 mice; PW164 0.07mg/mL, Time (h) 1", "value": 0},
      {"measurement": "HVF Mean", "setting": "C57BL/6 mice; PW164 0.07mg/mL, Time (h) 1.5", "value": 50},
      {"measurement": "LVF Mean", "setting": "C57BL/6 mice; PW164 0.07mg/mL, Time (h) 1.5", "value": 0},
      {"measurement": "HVF Mean", "setting": "C57BL/6 mice; PW164 0.07mg/mL, Time (h) 2", "value": 50},
      {"measurement": "LVF Mean", "setting": "C57BL/6 mice; PW164 0.07mg/mL, Time (h) 2", "value": 0},
      {"measurement": "HVF Mean", "setting": "C57BL/6 mice; PW164 0.21 mg/mL, Time (h) 0", "value": 53.3333},
      {"measurement": "LVF Mean", "setting": "C57BL/6 mice; PW164 0.21 mg/mL, Time (h) 0", "value": 0},
      {"measurement": "HVF Mean", "setting": "C57BL/6 mice; PW164 0.21 mg/mL, Time (h) 0.5", "value": 50},
      {"measurement": "LVF Mean", "setting": "C57BL/6 mice; PW164 0.21 mg/mL, Time (h) 0.5", "value": 0},
      {"measurement": "HVF Mean", "setting": "C57BL/6 mice; PW164 0.21 mg/mL, Time (h) 1", "value": 50},
      {"measurement": "LVF Mean", "setting": "C57BL/6 mice; PW164 0.21 mg/mL, Time (h) 1", "value": 0},
      {"measurement": "HVF Mean", "setting": "C57BL/6 mice; PW164 0.21 mg/mL, Time (h) 1.5", "value": 53.3333},
      {"measurement": "LVF Mean", "setting": "C57BL/6 mice; PW164 0.21 mg/mL, Time (h) 1.5", "value": 0},
      {"measurement": "HVF Mean", "setting": "C57BL/6 mice; PW164 0.21 mg/mL, Time (h) 2", "value": 50},
      {"measurement": "LVF Mean", "setting": "C57BL/6 mice; PW164 0.21 mg/mL, Time (h) 2", "value": 3.333},
      {"measurement": "HVF Mean", "setting": "C57BL/6 mice; PW164 0.7 mg/mL, Time (h) 0", "value": 53.3333},
      {"measurement": "LVF Mean", "setting": "C57BL/6 mice; PW164 0.7 mg/mL, Time (h) 0", "value": 0},
      {"measurement": "HVF Mean", "setting": "C57BL/6 mice; PW164 0.7 mg/mL, Time (h) 0.5", "value": 50},
      {"measurement": "LVF Mean", "setting": "C57BL/6 mice; PW164 0.7 mg/mL, Time (h) 0.5", "value": 0},
      {"measurement": "HVF Mean", "setting": "C57BL/6 mice; PW164 0.7 mg/mL, Time (h) 1", "value": 56.6667},
      {"measurement": "LVF Mean", "setting": "C57BL/6 mice; PW164 0.7 mg/mL, Time (h) 1", "value": 0},
      {"measurement": "HVF Mean", "setting": "C57BL/6 mice; PW164 0.7 mg/mL, Time (h) 1.5", "value": 53.3333},
      {"measurement": "LVF Mean", "setting": "C57BL/6 mice; PW164 0.7 mg/mL, Time (h) 1.5", "value": 3.333},
      {"measurement": "HVF Mean", "setting": "C57BL/6 mice; PW164 0.7 mg/mL, Time (h) 2", "value": 56.6667},
      {"measurement": "LVF Mean", "setting": "C57BL/6 mice; PW164 0.7 mg/mL, Time (h) 2", "value": 0},
      {"measurement": "paw withdrawal to LVF/HVF stimulation, normal sensitivity", "setting": "C57BL/6 mice; WT mice, i.pl. 5 μL, doses tested", "value": "did not affect paw withdrawal"}
    ]}
  ]
}
